Laboratory results from BindingDB's records for doi:10.1124/jpet.102.034249 (Sanofi-Synthelabo Recherche, 2002).

Experiments:
[1] = biological target: 5-hydroxytryptamine receptor 4 (Homo sapiens, UniProt Q13639)
[2] = biological target: T1, 5-hydroxytryptamine receptor 3A (Homo sapiens, UniProt P46098)
T1 sequence (P46098 whole entry): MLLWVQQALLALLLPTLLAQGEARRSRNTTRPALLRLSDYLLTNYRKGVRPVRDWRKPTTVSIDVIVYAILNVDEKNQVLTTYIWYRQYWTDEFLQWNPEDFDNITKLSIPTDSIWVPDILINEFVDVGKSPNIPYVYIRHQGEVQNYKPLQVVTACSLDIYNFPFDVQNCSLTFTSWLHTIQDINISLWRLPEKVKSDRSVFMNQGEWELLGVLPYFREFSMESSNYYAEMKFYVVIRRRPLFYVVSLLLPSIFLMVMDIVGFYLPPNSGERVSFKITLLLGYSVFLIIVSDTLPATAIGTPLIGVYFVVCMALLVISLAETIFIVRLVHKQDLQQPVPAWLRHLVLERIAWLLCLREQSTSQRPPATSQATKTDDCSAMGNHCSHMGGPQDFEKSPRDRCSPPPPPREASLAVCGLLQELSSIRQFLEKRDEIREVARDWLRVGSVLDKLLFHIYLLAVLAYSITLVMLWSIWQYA

[3] = biological target: 5-hydroxytryptamine receptor 2A (Homo sapiens, UniProt P28223)
[4] = biological target: 5-hydroxytryptamine receptor 7 (Homo sapiens, UniProt P34969)
[5] = biological target: 5-hydroxytryptamine receptor 6 (Homo sapiens, UniProt P50406)
[6] = biological target: 5-hydroxytryptamine receptor 2B (Homo sapiens, UniProt P41595)
[7] = biological target: T2, 5-hydroxytryptamine receptor 1A (Homo sapiens, UniProt P08908)
T2 sequence (P08908 whole entry): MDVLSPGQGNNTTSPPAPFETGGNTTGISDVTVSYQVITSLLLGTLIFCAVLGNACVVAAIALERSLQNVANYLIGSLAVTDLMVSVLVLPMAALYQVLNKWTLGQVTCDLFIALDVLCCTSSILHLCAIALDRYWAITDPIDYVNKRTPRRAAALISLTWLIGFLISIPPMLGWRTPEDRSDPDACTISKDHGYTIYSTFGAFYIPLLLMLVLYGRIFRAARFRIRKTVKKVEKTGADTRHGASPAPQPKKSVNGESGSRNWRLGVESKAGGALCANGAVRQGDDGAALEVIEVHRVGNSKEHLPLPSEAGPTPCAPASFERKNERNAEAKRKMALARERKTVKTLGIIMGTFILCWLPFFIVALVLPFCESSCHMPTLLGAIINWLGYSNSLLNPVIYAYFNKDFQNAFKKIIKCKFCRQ

[8] = biological target: 5-hydroxytryptamine receptor 5A (Homo sapiens, UniProt P47898)
[9] = biological target: 5-hydroxytryptamine receptor 1B (Homo sapiens, UniProt P28222)
[10] = biological target: 5-hydroxytryptamine receptor 1D (Homo sapiens, UniProt P28221)
[11] = biological target: T3, 5-hydroxytryptamine receptor 2C (Homo sapiens, UniProt P28335)
T3 sequence (P28335 whole entry): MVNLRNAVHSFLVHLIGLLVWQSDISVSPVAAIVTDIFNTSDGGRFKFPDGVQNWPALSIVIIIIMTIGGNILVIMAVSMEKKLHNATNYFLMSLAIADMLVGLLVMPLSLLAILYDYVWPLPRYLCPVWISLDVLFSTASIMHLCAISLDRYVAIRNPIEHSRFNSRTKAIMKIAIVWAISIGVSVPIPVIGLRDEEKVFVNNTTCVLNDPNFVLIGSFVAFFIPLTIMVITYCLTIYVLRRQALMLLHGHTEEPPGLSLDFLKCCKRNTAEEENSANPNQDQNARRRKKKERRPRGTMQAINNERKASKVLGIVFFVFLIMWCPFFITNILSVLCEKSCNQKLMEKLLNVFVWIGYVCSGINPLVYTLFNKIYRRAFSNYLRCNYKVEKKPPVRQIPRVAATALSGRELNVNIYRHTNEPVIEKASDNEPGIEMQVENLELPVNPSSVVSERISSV

5-hydroxytryptamine receptor 2A, sequence (P28223 whole entry): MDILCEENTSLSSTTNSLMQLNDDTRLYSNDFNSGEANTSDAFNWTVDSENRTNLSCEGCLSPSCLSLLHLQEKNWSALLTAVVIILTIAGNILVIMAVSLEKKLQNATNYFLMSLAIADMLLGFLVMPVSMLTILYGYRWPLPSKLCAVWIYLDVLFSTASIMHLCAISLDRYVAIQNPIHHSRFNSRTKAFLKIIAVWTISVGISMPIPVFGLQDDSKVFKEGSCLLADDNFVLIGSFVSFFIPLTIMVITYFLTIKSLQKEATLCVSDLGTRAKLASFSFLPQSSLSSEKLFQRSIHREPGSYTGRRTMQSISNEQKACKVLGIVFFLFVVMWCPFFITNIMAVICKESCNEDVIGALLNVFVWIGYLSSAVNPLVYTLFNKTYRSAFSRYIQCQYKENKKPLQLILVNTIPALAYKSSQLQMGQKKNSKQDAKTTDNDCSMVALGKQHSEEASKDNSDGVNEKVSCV
5-hydroxytryptamine receptor 1D, sequence (P28221 whole entry): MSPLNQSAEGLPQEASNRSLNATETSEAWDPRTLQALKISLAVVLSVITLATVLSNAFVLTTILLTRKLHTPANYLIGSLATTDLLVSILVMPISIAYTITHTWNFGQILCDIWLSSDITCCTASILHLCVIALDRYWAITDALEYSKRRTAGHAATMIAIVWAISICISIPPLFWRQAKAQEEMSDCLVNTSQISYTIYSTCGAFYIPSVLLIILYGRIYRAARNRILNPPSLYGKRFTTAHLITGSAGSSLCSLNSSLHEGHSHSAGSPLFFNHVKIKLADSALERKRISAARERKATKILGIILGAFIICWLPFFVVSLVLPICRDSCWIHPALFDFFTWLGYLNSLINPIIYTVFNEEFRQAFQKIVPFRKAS
5-hydroxytryptamine receptor 5A, sequence (P47898 whole entry): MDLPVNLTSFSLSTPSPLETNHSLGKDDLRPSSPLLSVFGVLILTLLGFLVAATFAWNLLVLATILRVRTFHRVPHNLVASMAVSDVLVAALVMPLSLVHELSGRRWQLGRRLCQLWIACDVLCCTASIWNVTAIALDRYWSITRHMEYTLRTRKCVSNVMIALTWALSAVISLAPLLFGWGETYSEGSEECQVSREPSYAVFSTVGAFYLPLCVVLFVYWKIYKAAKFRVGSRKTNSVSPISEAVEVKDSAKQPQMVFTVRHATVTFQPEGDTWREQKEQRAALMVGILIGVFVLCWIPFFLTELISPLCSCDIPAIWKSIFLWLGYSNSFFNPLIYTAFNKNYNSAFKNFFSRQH
5-hydroxytryptamine receptor 6, sequence (P50406 whole entry): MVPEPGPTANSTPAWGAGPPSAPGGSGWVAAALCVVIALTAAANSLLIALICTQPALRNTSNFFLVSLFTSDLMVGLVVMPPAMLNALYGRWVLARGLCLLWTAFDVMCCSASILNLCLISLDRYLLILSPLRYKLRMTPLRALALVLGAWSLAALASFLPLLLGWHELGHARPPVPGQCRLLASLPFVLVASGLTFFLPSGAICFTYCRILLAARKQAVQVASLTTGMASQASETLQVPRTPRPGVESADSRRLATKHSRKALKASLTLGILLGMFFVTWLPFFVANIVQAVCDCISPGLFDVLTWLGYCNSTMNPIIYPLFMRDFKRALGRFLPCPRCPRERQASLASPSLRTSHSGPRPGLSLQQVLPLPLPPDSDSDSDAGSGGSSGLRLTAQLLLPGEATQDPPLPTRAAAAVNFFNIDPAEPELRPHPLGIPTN
5-hydroxytryptamine receptor 2B, sequence (P41595 whole entry): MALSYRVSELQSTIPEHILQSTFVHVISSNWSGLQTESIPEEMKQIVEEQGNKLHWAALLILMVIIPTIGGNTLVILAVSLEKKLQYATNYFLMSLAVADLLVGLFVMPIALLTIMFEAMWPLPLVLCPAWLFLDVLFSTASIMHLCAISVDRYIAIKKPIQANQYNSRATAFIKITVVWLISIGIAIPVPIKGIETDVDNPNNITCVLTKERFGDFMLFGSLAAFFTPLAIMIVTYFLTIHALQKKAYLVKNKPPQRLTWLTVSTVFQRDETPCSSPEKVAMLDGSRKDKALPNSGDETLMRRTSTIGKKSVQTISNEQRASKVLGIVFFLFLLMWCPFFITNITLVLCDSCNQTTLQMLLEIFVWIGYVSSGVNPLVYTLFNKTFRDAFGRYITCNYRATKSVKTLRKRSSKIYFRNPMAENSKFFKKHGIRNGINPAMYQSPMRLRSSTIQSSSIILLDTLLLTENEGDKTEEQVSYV
5-hydroxytryptamine receptor 4, sequence (Q13639 whole entry): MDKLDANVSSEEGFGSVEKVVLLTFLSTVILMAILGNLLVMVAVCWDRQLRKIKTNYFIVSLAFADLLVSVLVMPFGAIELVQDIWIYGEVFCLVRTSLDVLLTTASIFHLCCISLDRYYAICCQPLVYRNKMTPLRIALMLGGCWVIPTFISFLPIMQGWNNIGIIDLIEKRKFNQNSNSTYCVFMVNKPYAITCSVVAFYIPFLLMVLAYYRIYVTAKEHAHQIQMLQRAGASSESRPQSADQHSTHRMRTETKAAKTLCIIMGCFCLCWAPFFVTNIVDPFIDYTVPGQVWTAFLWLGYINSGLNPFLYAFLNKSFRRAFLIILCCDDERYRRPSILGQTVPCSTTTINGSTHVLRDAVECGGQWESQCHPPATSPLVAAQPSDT
5-hydroxytryptamine receptor 7, sequence (P34969 whole entry): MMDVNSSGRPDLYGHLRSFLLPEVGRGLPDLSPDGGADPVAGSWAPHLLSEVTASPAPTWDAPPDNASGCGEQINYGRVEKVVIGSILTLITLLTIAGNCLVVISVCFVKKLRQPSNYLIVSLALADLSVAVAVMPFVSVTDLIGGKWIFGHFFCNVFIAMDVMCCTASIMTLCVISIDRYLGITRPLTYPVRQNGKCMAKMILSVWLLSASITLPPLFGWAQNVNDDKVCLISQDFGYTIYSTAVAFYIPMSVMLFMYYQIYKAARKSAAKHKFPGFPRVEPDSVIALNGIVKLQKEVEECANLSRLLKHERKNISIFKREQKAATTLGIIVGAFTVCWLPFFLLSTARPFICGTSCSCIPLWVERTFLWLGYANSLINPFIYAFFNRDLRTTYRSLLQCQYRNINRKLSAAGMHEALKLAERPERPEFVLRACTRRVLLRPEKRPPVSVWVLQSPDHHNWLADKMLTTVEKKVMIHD
5-hydroxytryptamine receptor 1B, sequence (P28222 whole entry): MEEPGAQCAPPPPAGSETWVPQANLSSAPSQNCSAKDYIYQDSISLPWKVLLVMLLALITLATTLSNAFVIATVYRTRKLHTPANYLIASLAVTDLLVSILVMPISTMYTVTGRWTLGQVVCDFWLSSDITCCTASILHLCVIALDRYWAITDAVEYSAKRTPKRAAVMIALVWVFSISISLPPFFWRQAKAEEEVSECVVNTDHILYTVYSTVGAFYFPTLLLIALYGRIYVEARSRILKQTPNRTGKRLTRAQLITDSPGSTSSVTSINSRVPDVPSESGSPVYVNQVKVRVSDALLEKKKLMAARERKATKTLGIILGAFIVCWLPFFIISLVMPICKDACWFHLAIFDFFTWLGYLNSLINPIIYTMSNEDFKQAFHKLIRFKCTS

Nc1c(Cl)cc(-c2nn(C3CCN(CCc4ccccc4)CC3)c(=O)o2)c2c1OCCO2 [SL65.0155]
Ki [1]: 0.6 nM | Ki [2]: > 10000 nM | Ki [3]: 1320 nM | Ki [4]: 3260 nM | Ki [5]: 2580 nM | Ki [6]: 1560 nM | Ki [7]: 1020 nM | Ki [8]: > 10000 nM | Ki [9]: 5500 nM | Ki [10]: 7990 nM | Ki [11]: 4780 nM
